# Assay results reported in patent US7374890B2, “Methods for identifying compounds that modulate ΔTRα2 activity” (University of Massachusetts, priority 2000, dated 2008).
# Key:
# [1] = test system: cerebellar granule neurons; assay: FM1-43 synaptic vesicle recycling in cultured cerebellar granule neurons, spontaneous activity; type: cell-based, rat
# Experimental: All of the major components of hormone-induced vesicle trafficking in astrocytes (actin fibers, myosin V (also referred to as myosin 5a and myo 5a), and recycling vesicles) are also present in nerve terminals. Therefore, the effects of thyroid hormone on synaptic vesicle recycling in the presynaptic nerve terminal were examined using myo5a-dependent synaptic vesicle (SV) recycling in cultured cerebellar granule neurons. In these experiments, rat granule neurons were grown on laminin-coated coverslips in the absence or presence of hormone and synaptic vesicle recycling was examined using FM1-43 (a styryl dye used in the art for studying endocytosis and exocytosis, e.g., in synaptic vesicle uptake and release assays; Molecular Probes, Inc. Eugene, Oreg.). […] In contrast, granule neurons grown in thyroid hormone supplemented medium released only 15-20% of the FM1-43 after six minutes of incubation and the hormone specificity of retention of FM1-43 in the “reserve pool” was identical to that determined for myo5a-dependent, endocytosis of p29 vesicles (D2p29 vesicles) in astrocytes.
# Cerebellar granule neurons were examined because thyroid hormone has a profound influence on granule neuron viability during cerebellar maturation (Xiao and Nikodem, 1998, Front. Biosci. 3: A52-57; Rabie et al., 1980, Brain Res. 190:409-414), and because of the effects of the loss of myo5a on synaptic vesicle homeostasis (Bridgman, 1999, J. Cell Biol. 146:1045-1060). […]
# Experiments were conducted to determine whether synaptic vesicle endocytosis could be altered by the hormone status of the neuron. […] The dye was then removed and the number, intensity and retention of the FM1-43 in random nerve terminals immediately after washing and after six minutes of autonomous activity were analyzed in paraformaldehyde fixed cells (Ryan, 1999, J. Neurosci.: 19:1317-1323). Fluorescence in single nerve terminals (ROI=7×7 pixels) and in an adjacent segment of the neuronal fiber were measured for 40-45 individual nerve terminals. […] Fluorescence intensity was determined using NIH Image software. The total FM1-43 fluorescence in a nerve terminal represents the sum of the dye-loaded synaptic vesicles in the readily releasable and the reserve pools.
# By allowing recurrent activity, the FM1-43 filled synaptic vesicles present in the readily releasable pool will be progressively depleted. […] By measuring the total FM1-43 content in random nerve terminals immediately after loading and at 30 second intervals for six minutes of spontaneous activity, the influence of hormones on the distribution of recycling synaptic vesicles between the readily releasable and reserve pools was estimated.
# [2] = test system: binding of p29 vesicles to F-actin; assay: in vitro actin binding assay with BrAc[125I]T4-labeled p29 vesicles; type: biochemical, rat; settings: 10 nM hormone, 20 minutes at 37° C.
# Experimental: Actin binding of the p29 vesicles was then initiated by addition of 10 nM T4, and the Triton-insoluble (F-actin bound) pellet was separated from the Triton-soluble (vesicle) fraction.
# An in vitro binding assay was developed whose principle is based on the hormone dependent redistribution of affinity labeled p29 between the Triton-soluble (vesicle pool) and Triton-insoluble (F-actin cytoskeleton) fractions. The assay was used to examine the hormone dependent relationship between the p29-containing endosome and the F-actin cytoskeleton. Two different pools of astrocytes were prepared. […] The other astrocyte pool was used to prepare affinity BrAc [^125 I]T4-labeled p29 vesicles from thyroid-deficient cells (V-lysate; Farwell et al. 1990, J. Biol. Chem. 265:18546-18553). V-lysates were prepared from cAMP-stimulated astrocytes grown in serum-free media that were labeled with 2 nM BrAc[^125 I]T4 as described in Farwell et al. (1990, J. Biol. Chem. 265:18546-18553). […]
# After the incubation, the mixtures were chilled on ice for 2 minutes, then Triton X-100® (0.5% v/v, final) was added and the soluble (Triton supernatant, vesicles) and insoluble (Triton pellet, F-actin) fractions were separated by microfuge centrifugation at 4° C. for 5 minutes. The distribution of [^125 I]-labeled p29 was then determined by SDS PAGE analysis.
# [3] = test system: cerebellar granule neurons; assay: release of FM1-43-loaded synaptic vesicles from cerebellar granule neurons under continuous stimulus; type: cell-based, rat; settings: 10 nM hormone; continuous stimulation by 50 mM KCl; vs no hormone controls; first order kinetics assumed
# Experimental: Granule neurons were grown for 7 days and rendered hormone free by growth in serum-free medium as detailed above. Coverslips were then placed in a perfusion chamber, mounted on the stage of a laser scanning confocal microscope and perfused at 1 ml/min at 25° C. with perfusion buffer (119 mM NaCl, 2.5 mM KCl, 2 mM CaCl2, 2 mM MgCl2, 25 mM HEPES (pH 7.4), 30 mM glucose, and […] AP-5). The effects of different hormones on synaptic vesicle trafficking were then determined. […] Depolarizing KCl was then removed from the perfusion buffer and the cells were exposed to FM1-43 for an additional 30 seconds to insure complete loading of recycling synaptic vesicles. Loaded cells were then washed free of dye and the cells were perfused for ten minutes at rest.
# Images of a single field of neuronal fibers were then taken immediately before adding a second depolarizing solution (perfusion buffer containing 50 mM KCl) and at one and two minutes after beginning the continuous stimulation by 50 mM KCl. Thirty to forty-five individual FM1-43 labeled nerve terminals were identified in the baseline images (taken prior to depolarization) and the change in fluorescence (DF) for each nerve terminal determined at the one and two minute time points. FIGS. 11A and 11B show the results of analysis of the hormone specificity of synaptic vesicle trafficking (FIG. 11A) and the influence of individual myo5a mutants (FIG. 11B) on synaptic vesicle transport in granule neurons.
# To evaluate the role of myo5a in synaptic vesicle transport, three different myo5a constructs were introduced into the neurons by replication-deficient adenoviral vectors (Δmyo5a^tail(MyoV^tail), Δmyo5a^c-term(MyoV^1830)and ΔMyo5a^CC(MyoV^cc) see FIG. 5) as described above. […] Neurons were infected with purified Ad5-constructs (MOI=10) 48 hours prior to the synaptic vesicle trafficking study, and allowed to recover in hormone (T4) supplemented medium. […] This modest influence of the VBD mutant on synaptic vesicle retention is likely to be due to the loss of the kinesin-binding domain that limits its delivery to nerve terminals.
# [4] = test system: astrocytes; assay: subcellular distribution of immunoreactive TRα2-derived proteins in cultured astrocytes; type: cell-based, rat; settings: serum-free medium, treated 20 minutes, 0.1% bovine serum albumin carrier
# Text: The subcellular distribution of immunoreactive thyroid hormone receptor-derived proteins in primary brain cell cultures and in cultured astrocytes was examined. Primary brain cell cultures were fixed with 0.4% paraformaldehyde, permeabilized with Triton X-100®, and stained for TRα-derived proteins using specific antisera directed against the unique C-termini of TRα1 and TRα2 proteins, and visualized by staining with a secondary tagged antibody. Consistent with previous observations (Kolodny et al., 1985, Endocrinol. 117: 1848-1857), immunoreactive TRα1 proteins were found in the nuclei of astrocytes and neuronal cells. However, TRα2-derived proteins were not localized to the nucleus in either astrocytes or neurons, but appeared as donut shaped structures located throughout the astrocyte or as discreet punctate signals along neuronal fibers. This latter pattern is diagnostic for synapses in neuronal cultures (Wong et al., 1999, Neurosci. 89:221-233), and is consistent with the presence of ΔTRα2-derived protein in nerve terminals.
# The subcellular distribution of immunoreactive TRα2-derived proteins in cultured astrocytes was influenced by the presence of either T4 or rT3. In these experiments astrocytes were grown in serum-free medium, treated for 20 minutes with either […] or rT3, and fixed, permeabilized, and stained as described above. […]
compound,measurement,setting,value
"N[C@@H](Cc1cc(I)c(Oc2cc(I)c(O)c(I)c2)c(I)c1)C(=O)O [T4, thyroxine]",endocytosed FM1-43 retained,"[1]; acute treatment, after three minutes of spontaneous stimulation",> 90%
same,uptake of FM1-43,[1]; immediately after loading,No differences
same,"radiolabeled p29 bound to the Triton insoluble, F-actin fraction",[2],more than 70%
same,decrease of the rate of FM1-43 release,[3],75%
same,subcellular distribution of TRα2-derived proteins,[4],coalescence of the TRα2-derived proteins around the perinuclear space
